Reference: patent US20190014793A1, “METHOD OF PROVIDING NUTRITION TO INFANTS” (ABBOTT LABORATORIES, priority 2011, published 2019)

Tests used:
[1] = Merck Index, 11th Ed.; cited from earlier work
[2] = Amino acid solubility considerations (estimated concentration v. solubility limit); type: physicochemical; details: % of solubility limit at 25° C.

Sterile liquid protein concentration, % of limit [2] | SMILES | Solubility limit of free amino acid, 25° C. [1]
400% | N[C@@H](Cc1ccc(O)cc1)C(=O)O [Tyr, L-tyrosine] | 
13% | CC(C)[C@H](N)C(=O)O [Val, Valine] | 88.5 mg/mL

The next lines start with the molecule.

SMILES | Sterile liquid protein concentration, % of limit [2] | Solubility limit of free amino acid, 25° C. [1]
CC[C@H](C)[C@H](N)C(=O)O [Ile, Isoleucine] | 22% | 41.2 mg/mL
CC(C)C[C@H](N)C(=O)O [Leu, Leucine] | 67% | 24.26 mg/mL
N[C@@H](Cc1ccccc1)C(=O)O [Phe, L-phenylalanine] | 27% | 29.6 mg/mL
